Where two headings read alike, the source gives them in different places.
What was measured:
M1 muscarinic receptor = target: T1, M1 muscarinic receptor (Homo sapiens, UniProt P11229); assay: Functional mobilization of intracellular calcium (FLIPR, Fluo-3), M1-CHO cells; format: cell-based; conditions: for Emax: 100% efficacy is the maximum response obtained with the Carbachol control, read-out: M1 Efficacy
T1 construct: expressed in transfected cells; host or cells: CHO cells (M1-CHO, under zeocin and G418 selection)
T1 sequence (P11229 1-460): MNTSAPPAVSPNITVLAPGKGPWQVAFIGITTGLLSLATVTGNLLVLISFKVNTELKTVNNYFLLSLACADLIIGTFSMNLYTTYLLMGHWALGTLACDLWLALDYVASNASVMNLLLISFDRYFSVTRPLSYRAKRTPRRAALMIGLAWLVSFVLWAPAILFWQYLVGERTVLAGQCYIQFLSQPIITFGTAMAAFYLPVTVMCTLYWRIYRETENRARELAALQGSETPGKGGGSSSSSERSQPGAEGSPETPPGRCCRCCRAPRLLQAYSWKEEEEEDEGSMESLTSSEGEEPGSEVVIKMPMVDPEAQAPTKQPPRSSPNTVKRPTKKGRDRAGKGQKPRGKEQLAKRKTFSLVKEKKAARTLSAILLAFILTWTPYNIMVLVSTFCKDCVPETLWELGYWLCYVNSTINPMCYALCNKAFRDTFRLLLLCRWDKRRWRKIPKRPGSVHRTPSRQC
How it was run: (§1)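 CHO lines stably carrying the muscarinic subtype, dye-loaded with Fluo-3 at 37° C for 60-90 min, receive test compound in 0.5% DMSO. Agonist effects are read directly; antagonist effects against carbachol at EC80 after 15 min pre-incubation.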

M4 muscarinic receptor = target: T2, M4 muscarinic receptor (Homo sapiens, UniProt P08173); assay: Functional mobilization of intracellular calcium (FLIPR, Fluo-3), M4-CHO cells; format: cell-based; conditions: for Emax: 100% efficacy is the maximum response obtained with the Carbachol control, read-out: M4 Efficacy
T2 construct: expressed in transfected cells; host or cells: CHO cells (M4-CHO, under puromycin, zeocin and blasticidin selection)
T2 sequence (P08173 1-479): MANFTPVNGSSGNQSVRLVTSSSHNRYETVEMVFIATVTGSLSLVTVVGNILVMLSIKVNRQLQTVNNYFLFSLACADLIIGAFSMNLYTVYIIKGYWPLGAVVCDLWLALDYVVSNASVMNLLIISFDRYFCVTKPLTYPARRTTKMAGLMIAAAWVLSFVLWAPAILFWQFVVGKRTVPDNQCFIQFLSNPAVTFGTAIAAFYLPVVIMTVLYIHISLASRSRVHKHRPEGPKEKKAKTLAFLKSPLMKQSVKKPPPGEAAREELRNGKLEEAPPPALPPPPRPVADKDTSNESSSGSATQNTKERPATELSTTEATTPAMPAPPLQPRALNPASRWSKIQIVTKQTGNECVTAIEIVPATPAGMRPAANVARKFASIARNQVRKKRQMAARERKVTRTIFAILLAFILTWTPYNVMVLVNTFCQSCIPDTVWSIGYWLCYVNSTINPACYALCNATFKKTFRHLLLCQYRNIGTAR
How it was run: as §1

[1] = compound nos. 1-454, M1-CHO cells, calcium mobilization
[2] = compound nos. 1-454, M4-CHO cells, calcium mobilization

Row | SMILES | Emax (M1 muscarinic receptor; compound nos. 1-454) [%] | M1 Activity (M1 muscarinic receptor; [1]) | Emax (M4 muscarinic receptor; compound nos. 1-454) [%] | M4 Activity (M4 muscarinic receptor; [2]) | M1 Activity (M1 muscarinic receptor; compound nos. 1-454) | M4 Activity (M4 muscarinic receptor; compound nos. 1-454) | Emax (M1 muscarinic receptor; compound nos. 455-509) [%] | M1 Activity (M1 muscarinic receptor; compounds 455-509) | Emax (M4 muscarinic receptor; compound nos. 455-509) [%] | M4 Activity (M4 muscarinic receptor; compounds 455-509)
1 | CCOC(=O)N1CCC(N2CCC3(CC2)CN(CC(C)=O)c2ccc(F)cc23)CC1 [compound 249] | 65 to 85 | + (activity was measured to be greater than or equal to 3.0 μM) | 55 to 70 | + (activity was measured to be greater than or equal to 4.0 μM) |  |  |  |  |  | 
2 | Fc1ccc2c(c1)C1(CCN(C3CC4CCC3C4)CC1)CN2 (stereo not shown) [compound 416] | < 65 |  | < 55 |  | + (activity was measured to be greater than or equal to 3.0 μM) | + (activity was measured to be greater than or equal to 4.0 μM) |  |  |  | 
3 | CCOC(=O)N1CCC(N2CCC3(CC2)CN(CCOC)c2ccc(F)cc23)CC1 [compound 391] | < 65 |  | < 55 |  | ++ (activity was measured to be between 0.7 μM and 3.0 μM) | + (activity was measured to be greater than or equal to 4.0 μM) |  |  |  | 
4 | CCOC(=O)N1C2CCC1CC(N1CCC3(CC1)CNc1ccc(Cl)cc13)C2 (stereo not shown) [compound 351] | 65 to 85 | +++ (activity was measured to be less than or equal to 0.7 μM) | > 70 | ++ (activity was measured to be between 0.1 μM and 4.0 μM) |  |  |  |  |  | 
5 | CN(C)C(=O)N1CC2(CCN(C3(C)CCN(c4cnccn4)CC3)CC2)c2ccccc21 [compound 465] |  |  |  |  |  |  | > 100 | ++ (activity was measured to be between 2.0 μM and 5.0 μM) | 25 to 100 | ++ (activity was measured to be between 2.0 μM and 5.0 μM)
6 | CC(=O)N1CC2(CCN(CC3CC4CCC3CC4)CC2)c2cc(F)ccc21 (stereo not shown) [compound 366] | < 65 | ++ (activity was measured to be between 0.7 μM and 3.0 μM) | < 55 | + (activity was measured to be greater than or equal to 4.0 μM) |  |  |  |  |  | 
7 | CN(C)C(=O)N1CC2(CCN(C3CCN(C(=O)OCCF)CC3)CC2)c2cc(F)ccc21 [compound 48] | > 85 | +++ (activity was measured to be less than or equal to 0.7 μM) | 55 to 70 | ++ (activity was measured to be between 0.1 μM and 4.0 μM) |  |  |  |  |  | 
8 | CCNC(=O)N1C2CCC1CC(N1CCC3(CC1)COc1ccc(F)cc13)C2 (stereo not shown) [compound 219] | 65 to 85 | + (activity was measured to be greater than or equal to 3.0 μM) | < 55 | + (activity was measured to be greater than or equal to 4.0 μM) |  |  |  |  |  | 
9 | COCCOC(=O)N1CC2(CCN(C3CC4CCC(C3)N4C(=O)O[C@@H]3CCOC3)CC2)c2cc(F)ccc21 (stereo partly shown) [compound 304] | 65 to 85 | +++ (activity was measured to be less than or equal to 0.7 μM) | < 55 | + (activity was measured to be greater than or equal to 4.0 μM) |  |  |  |  |  | 
10 | O=C(O[C@H]1CCOC1)N1C2CCC1CC(N1CCC3(CC1)COc1ccc(F)cc13)C2 (stereo partly shown) [compound 212] | < 65 | + (activity was measured to be greater than or equal to 3.0 μM) | < 55 | + (activity was measured to be greater than or equal to 4.0 μM) |  |  |  |  |  | 
11 | CCCc1ccc2c(c1)C1(CCN(C3CCN(C(=O)OCC)CC3)CC1)CN2C(C)=O [compound 74] | 65 to 85 | +++ (activity was measured to be less than or equal to 0.7 μM) | 55 to 70 | ++ (activity was measured to be between 0.1 μM and 4.0 μM) |  |  |  |  |  | 
12 | CN(C)C(=O)N1CC2(CCN(C3CC4CCC(C3)N4C(=O)O[C@H]3CCOC3)CC2)c2cc(F)ccc21 (stereo partly shown) [compound 130] | < 65 | +++ (activity was measured to be less than or equal to 0.7 μM) | < 55 | ++ (activity was measured to be between 0.1 μM and 4.0 μM) |  |  |  |  |  | 
13 | c1ccc2c(c1)NCC21CCN(C2CC3CCC2C3)CC1 (stereo not shown) [compound 272] | 65 to 85 | +++ (activity was measured to be less than or equal to 0.7 μM) | > 70 | +++ (activity was measured to be less than or equal to 0.1 μM) |  |  |  |  |  | 

— US7858635B2 (priority 2005, dated 2010)
